# Test results taken from patent US9446039B2, “Aminoheteroaryl compounds as MTH1 inhibitors” (CEMM—FORSCHUNGSZENTRUM FÜR MOLEKULARE MEDIZIN GMBH, priority 2012, dated 2016).
# Assays:
# Assay type in all cases: binding
# [1] = target: T1, SW480 colon carcinoma cells lysate proteins (Homo sapiens, UniProt P21980); conditions: PreyGene TGM2
# T1 sequence (P21980 1-687): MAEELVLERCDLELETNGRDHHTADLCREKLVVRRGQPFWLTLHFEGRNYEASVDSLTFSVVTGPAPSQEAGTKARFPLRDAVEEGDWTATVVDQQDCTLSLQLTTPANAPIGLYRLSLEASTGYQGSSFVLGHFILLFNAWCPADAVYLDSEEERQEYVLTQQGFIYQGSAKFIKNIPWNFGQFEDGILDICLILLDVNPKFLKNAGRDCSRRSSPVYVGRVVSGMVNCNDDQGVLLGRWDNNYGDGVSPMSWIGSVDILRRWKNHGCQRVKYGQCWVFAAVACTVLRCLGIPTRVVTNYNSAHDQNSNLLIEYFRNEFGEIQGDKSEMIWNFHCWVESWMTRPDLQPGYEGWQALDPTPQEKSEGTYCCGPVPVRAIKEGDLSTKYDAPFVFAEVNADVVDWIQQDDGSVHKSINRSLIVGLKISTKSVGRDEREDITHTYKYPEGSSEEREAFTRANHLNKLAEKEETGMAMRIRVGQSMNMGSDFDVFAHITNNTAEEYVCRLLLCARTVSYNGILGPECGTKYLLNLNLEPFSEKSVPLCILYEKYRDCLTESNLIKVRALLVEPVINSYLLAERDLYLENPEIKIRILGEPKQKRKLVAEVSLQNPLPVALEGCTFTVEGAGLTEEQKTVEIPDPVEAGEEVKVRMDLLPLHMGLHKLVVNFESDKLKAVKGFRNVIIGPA
# [2] = target: T2, SW480 colon carcinoma cells lysate proteins (Homo sapiens, UniProt P22234); conditions: PreyGene PAICS
# T2 sequence (P22234 1-425): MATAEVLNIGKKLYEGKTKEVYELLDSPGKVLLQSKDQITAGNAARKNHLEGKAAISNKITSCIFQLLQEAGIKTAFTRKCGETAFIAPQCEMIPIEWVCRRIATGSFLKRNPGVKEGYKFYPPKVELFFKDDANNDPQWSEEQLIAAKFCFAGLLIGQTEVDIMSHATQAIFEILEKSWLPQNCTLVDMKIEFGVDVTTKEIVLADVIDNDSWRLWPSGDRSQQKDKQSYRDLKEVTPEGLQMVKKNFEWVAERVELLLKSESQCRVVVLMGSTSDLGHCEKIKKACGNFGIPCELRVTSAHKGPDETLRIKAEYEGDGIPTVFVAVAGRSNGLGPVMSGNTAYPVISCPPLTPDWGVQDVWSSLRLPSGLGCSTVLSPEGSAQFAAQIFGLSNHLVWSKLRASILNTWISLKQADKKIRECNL
# [3] = target: T3, SW480 colon carcinoma cells lysate proteins (Homo sapiens, UniProt P40925); conditions: PreyGene MDH1
# T3 sequence (P40925 1-334): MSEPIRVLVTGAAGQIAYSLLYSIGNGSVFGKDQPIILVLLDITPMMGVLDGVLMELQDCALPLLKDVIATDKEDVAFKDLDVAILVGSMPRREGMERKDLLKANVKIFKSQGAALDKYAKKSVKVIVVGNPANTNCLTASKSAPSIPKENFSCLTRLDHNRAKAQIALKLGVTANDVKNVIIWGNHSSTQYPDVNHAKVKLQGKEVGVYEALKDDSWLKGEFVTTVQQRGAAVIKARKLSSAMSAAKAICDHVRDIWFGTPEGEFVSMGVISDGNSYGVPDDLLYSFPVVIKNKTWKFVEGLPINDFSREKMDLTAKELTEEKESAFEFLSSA
# [4] = target: SW480 colon carcinoma cells lysate proteins (Homo sapiens, UniProt P49327); conditions: PreyGene FASN
# [5] = target: SW480 colon carcinoma cells lysate proteins (Homo sapiens, UniProt P62826); conditions: PreyGene RAN
# [6] = target: T4, SW480 colon carcinoma cells lysate proteins (Homo sapiens, UniProt Q01844); conditions: PreyGene EWSR1; SW480 cells
# T4 sequence (Q01844 1-656): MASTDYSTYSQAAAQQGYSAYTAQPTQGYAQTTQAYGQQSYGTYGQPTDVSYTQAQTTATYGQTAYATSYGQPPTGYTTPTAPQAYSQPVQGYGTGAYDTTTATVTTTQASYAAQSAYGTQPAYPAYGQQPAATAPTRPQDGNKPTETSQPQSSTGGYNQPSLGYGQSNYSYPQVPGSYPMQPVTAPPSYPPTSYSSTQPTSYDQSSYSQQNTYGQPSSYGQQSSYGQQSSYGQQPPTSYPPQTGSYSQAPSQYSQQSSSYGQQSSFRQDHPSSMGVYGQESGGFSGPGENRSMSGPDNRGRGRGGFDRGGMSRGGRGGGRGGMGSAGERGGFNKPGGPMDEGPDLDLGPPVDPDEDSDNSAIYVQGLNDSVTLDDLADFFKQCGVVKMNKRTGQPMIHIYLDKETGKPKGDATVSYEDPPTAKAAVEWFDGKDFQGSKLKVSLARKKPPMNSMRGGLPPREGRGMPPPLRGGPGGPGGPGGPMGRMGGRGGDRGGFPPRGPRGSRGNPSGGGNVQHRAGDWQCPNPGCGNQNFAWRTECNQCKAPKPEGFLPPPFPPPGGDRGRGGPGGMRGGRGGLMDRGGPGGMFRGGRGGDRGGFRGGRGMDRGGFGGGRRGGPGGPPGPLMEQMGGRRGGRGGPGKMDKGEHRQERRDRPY
# [7] = target: SW480 colon carcinoma cells lysate proteins (Homo sapiens, UniProt Q99623); conditions: PreyGene PHB2; SW480 cells
# Sequence of SW480 colon carcinoma cells lysate proteins (Homo sapiens, UniProt Q99623) (Q99623 whole entry): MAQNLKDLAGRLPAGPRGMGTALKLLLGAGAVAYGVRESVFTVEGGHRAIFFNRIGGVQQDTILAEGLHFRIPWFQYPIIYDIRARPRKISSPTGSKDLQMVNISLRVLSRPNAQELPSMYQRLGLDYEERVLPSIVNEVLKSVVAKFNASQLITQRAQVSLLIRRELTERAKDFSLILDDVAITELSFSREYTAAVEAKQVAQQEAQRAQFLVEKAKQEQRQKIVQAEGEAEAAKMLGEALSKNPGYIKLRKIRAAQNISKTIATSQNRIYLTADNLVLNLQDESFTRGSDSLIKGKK
# Sequence of SW480 colon carcinoma cells lysate proteins (Homo sapiens, UniProt P49327) (P49327 whole entry): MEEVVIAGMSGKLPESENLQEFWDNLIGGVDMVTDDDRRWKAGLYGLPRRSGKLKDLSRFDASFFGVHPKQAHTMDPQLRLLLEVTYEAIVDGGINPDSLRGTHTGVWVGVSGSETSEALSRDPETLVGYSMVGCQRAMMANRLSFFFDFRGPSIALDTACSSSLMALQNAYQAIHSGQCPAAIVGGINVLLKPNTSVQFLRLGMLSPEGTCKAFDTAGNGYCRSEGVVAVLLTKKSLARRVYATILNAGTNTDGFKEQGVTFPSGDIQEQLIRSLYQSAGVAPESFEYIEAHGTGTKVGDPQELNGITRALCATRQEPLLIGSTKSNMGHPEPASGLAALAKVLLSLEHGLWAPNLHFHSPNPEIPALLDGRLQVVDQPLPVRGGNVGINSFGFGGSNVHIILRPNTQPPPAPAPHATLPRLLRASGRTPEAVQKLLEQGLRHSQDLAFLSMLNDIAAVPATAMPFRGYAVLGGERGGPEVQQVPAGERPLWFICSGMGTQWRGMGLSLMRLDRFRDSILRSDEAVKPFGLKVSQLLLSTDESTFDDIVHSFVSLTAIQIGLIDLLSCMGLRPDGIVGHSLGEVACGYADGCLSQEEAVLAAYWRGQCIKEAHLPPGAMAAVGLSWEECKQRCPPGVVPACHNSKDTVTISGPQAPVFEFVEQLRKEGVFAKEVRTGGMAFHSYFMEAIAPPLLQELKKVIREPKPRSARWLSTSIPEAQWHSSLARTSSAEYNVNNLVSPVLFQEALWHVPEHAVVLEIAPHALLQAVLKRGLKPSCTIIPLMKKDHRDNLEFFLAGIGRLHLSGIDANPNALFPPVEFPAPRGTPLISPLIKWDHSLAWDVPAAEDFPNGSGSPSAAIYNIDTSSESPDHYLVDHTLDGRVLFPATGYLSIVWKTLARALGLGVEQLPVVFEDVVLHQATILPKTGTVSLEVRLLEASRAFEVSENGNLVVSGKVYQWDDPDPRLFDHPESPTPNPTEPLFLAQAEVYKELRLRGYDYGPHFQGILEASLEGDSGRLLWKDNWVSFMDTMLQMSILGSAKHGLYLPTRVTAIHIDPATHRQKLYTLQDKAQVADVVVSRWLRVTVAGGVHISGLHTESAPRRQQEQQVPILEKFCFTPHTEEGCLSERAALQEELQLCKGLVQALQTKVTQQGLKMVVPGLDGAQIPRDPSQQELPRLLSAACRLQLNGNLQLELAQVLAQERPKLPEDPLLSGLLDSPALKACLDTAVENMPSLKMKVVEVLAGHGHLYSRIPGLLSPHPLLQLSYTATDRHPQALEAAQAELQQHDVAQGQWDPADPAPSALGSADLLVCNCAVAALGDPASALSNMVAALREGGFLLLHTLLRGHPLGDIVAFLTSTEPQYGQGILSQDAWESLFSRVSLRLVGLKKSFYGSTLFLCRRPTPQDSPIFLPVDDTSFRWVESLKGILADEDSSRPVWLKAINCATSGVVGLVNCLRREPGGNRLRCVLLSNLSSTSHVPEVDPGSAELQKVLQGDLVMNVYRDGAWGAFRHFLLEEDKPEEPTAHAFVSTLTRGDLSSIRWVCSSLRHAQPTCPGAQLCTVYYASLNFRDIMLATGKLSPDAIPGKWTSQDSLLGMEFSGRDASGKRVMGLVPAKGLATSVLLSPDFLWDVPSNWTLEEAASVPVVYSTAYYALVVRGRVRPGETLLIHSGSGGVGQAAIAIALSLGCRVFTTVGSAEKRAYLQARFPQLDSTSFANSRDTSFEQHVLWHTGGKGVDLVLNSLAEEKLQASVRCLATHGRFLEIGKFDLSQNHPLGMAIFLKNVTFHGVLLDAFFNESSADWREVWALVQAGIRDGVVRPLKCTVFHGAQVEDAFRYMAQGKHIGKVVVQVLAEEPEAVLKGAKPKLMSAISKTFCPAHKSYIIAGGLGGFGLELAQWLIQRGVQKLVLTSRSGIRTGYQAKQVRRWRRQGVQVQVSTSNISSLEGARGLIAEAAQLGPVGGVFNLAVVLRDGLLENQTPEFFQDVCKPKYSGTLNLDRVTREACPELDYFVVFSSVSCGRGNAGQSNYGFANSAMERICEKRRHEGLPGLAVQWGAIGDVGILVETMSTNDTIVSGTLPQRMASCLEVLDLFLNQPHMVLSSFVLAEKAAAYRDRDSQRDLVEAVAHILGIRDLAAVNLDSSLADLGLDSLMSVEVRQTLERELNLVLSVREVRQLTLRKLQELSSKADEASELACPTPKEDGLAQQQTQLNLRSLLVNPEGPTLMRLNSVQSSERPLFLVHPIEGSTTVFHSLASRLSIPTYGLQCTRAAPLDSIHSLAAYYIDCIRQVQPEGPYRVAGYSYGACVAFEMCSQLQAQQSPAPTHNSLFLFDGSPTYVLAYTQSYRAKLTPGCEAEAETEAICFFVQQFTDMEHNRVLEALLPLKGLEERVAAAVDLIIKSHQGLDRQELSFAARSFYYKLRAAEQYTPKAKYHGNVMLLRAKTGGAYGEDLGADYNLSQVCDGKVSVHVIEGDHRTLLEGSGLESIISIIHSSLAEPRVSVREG
compound,measurement,setting,value
C[C@H](Oc1cc(-c2cnn(C3CCNCC3)c2)cnc1N)c1c(Cl)ccc(F)c1Cl [(5)-crizotinib],AvgP,[1],0.2455
same,SC.Exp. 1-1,[1],6
same,SC.Exp. 1-2,[1],5
same,SC.Exp. 2-1,[1],0
same,SC.Exp. 2-2,[1],0
same,Sum (SC.Exp.),[1],11
same,AvgP,[2],0.4488
same,SC.Exp. 1-1,[2],7
same,SC.Exp. 1-2,[2],5
same,SC.Exp. 2-1,[2],0
same,SC.Exp. 2-2,[2],0
same,Sum (SC.Exp.),[2],12
same,AvgP,[3],0.4615
same,SC.Exp. 1-1,[3],5
same,SC.Exp. 1-2,[3],6
same,SC.Exp. 2-1,[3],0
same,SC.Exp. 2-2,[3],0
same,Sum (SC.Exp.),[3],11
same,AvgP,[4],0.394
same,SC.Exp. 1-1,[4],8
same,SC.Exp. 1-2,[4],8
same,SC.Exp. 2-1,[4],0
same,SC.Exp. 2-2,[4],0
same,Sum (SC.Exp.),[4],16
same,AvgP,[5],0.3036
same,SC.Exp. 1-1,[5],5
same,SC.Exp. 1-2,[5],6
same,SC.Exp. 2-1,[5],0
same,SC.Exp. 2-2,[5],0
same,Sum (SC.Exp.),[5],11
same,AvgP,[6],0
same,SC.Exp. 1-1,[6],0
same,SC.Exp. 1-2,[6],1
same,SC.Exp. 2-1,[6],0
same,SC.Exp. 2-2,[6],0
same,SC.Exp. Sum,[6],1
same,AvgP,[7],0
same,SC.Exp. 1-1,[7],9
same,SC.Exp. 1-2,[7],8
same,SC.Exp. 2-1,[7],3
same,SC.Exp. 2-2,[7],5
same,SC.Exp. Sum,[7],25
